Assay results as given in patent US6750177B2, “Herbicide combination with acylated aminophenylsulfonylureas” (priority 2002, dated 2004).
Where two headings read alike, the source gives them in different places.

Legend:
Type in all cases: in vivo
Maize = system: Maize
Method: (§1) The seeds or rhizome pieces of typical harmful plants were planted and grown under natural field conditions. Before the harmful plants had emerged or after the harmful plants had emerged, they were treated, as a rule at the 2- to 8-leaf stage, with various dosages of the compositions according to the invention at a water application rate of 100 to 400 I/ha (converted).
(§2) After the treatment (approx. 4-6 weeks after application), the herbidical activity of the active ingredients or active ingredient mixtures was scored visually by comparing the treated plots with the untreated control plots. Damage and development of all aerial parts of the plants was recorded. Scoring was done on a percentage scale (100% action=all plants dead; 50% action=50% of the plants and green plant parts dead; 0% action=no discernible action=like control plot). The score figures of in each case 4 plots was averaged.
(§3) The results are shown in the tables which follow, the action when using active ingredients (A+B) and (C) independently being stated in brackets.

Polygonum convolvulus = assay: Herbicidal action (field trials), Polygonum convolvulus; details: Fallopia convolvulus, field trial
Method: as §1, §2, §3

Sorghum verticillata = assay: Herbicidal action (field trials), Sorghum verticillata; details: 60 g As/ha, field trial
Method: as §1, §2, §3

Setaria spp. = assay: Herbicidal action (field trials), Setaria spp.; details: field trial
Method: as §1, §2, §3

`N#Cc1cc(Br)c(O)c(Br)c1` [bromoxynil (C33), 3,5-dibromo-4-hydroxybenzonitrile] gave a Maize % damage (Maize; 240 g As/ha, field trial (table part with Polygonum convolvulus)) of 2% and an inhibition at 240 g/ha (Polygonum convolvulus; 240 g As/ha) of 40%.
Compound `COc1cc(OC)nc(NC(=O)NS(=O)(=O)c2ncccc2C(=O)N(C)C)n1` [nicosulfuron (C15), 2-(4,6-dimethoxypyrimidin-2-yl)-3-(3-dimethylcarbamoyl-2-pyridylsulfonyl)urea] has an inhibition at 60 g/ha (Sorghum verticillata) of 74% and a Maize % damage (Maize; 60 g As/ha, field trial (table part with Sorghum verticillata)) of 0%.
`COc1c(Cl)ccc(Cl)c1C(=O)O` [dicamba (C20), 3,6-dichloro-o-anisic acid] showed a Maize % damage (Maize; 60 g As/ha, field trial (table part with Polygonum convolvulus)) of 0% and an inhibition at 60 g/ha (Polygonum convolvulus; 60 g As/ha) of 35%.
`COc1cc(OC)nc(NC(=O)NS(=O)(=O)c2c(C(=O)O)c(Cl)nn2C)n1` [halosulfuron (C40), 3-chloro-5-(4,6-dimethoxypyrimidin-2-ylcarbamoylsulfamoyl)-1-methylpyrazole-4-carboxylic acid] was tested, and the inhibition at 36 g/ha (Setaria spp.; 36 g As/ha) was 0% and the Maize % damage (Maize; 36 g As/ha, field trial (table part with Setaria spp.)) was 3%.
`COc1nc(C)nc(NC(=O)NS(=O)(=O)c2ccccc2CCC(F)(F)F)n1` [prosulfuron (C42), 1-(4-methoxy-6-methyl-1,3,5-triazin-2-yl)-3-[2-(3,3,3-trifluoropropyl)phenylsulfonyl]urea] was tested, and the inhibition at 40 g/ha (Setaria spp.; 40 g As/ha) was 15% and the Maize % damage (Maize; 40 g As/ha, field trial (table part with Setaria spp.)) was 7%.
